Data: patent publication US12064426B2, “Selective inhibitors of ROCK1 and ROCK2 protein kinases and uses thereof” (GENOSCO Inc., priority 2021, dated 2024)

How the values were obtained:
[1] = target: T1, Recombinant ROCK2 (amino acids 5-554) (Homo sapiens, UniProt O75116); assay: ROCK inhibition assay, LANCE Ultra TR-FRET kinase assay (ROCK2); type: biochemical; conditions: 4 μM ATP, 50 nM ULight-CREBtide substrate
T1 construct: ROCK2 (amino acids 5-554); by word order, ROCK2 from SignalChem
Description: (§1) Kinase IC50 was determined through an in vitro assay based on LANCE Ultra TR-FRET (Time-Resolved Fluorescence Resonance Energy Transfer) homogeneous technologies method (Perkin Elmer). Recombinant ROCK1 (amino acids 1-477) and ROCK2 (amino acids 5-554) proteins were purchased from Carna Biosciences and SignalChem. Compound activities were measured by Envision and IC50s were calculated. The assays were performed in white LUMITRAC™ 200 96 well half-area microplates from Greiner Bio-One. The kinase reaction buffer consisted of 50 mM HEPES pH 7.5, 1 mM EGTA, 10 mM MgCl2, 2 mM DTT and 0.01% Tween-20. Kinases were incubated with 50 nM (ULight-CREBtide) substrate in the presence of 1 (ROCK1) or 4 (ROCK2) μM ATP. The kinase reaction was carried out for 1 hour before addition of a stopping buffer to a final of 10 mM EDTA and 0.6 nM of LANCE Ultra Europium anti-phospho-CREB (Ser133) antibody (PerkinElmer TRF0200) in LANCE detection buffer. All assay incubations were performed at room temperature, and the microplates were sealed with polyester film during that time. The reaction was incubated for 1 hour, and the signal was read in Envision in TR-FRET mode (excitation at 320 nm and emission at 615/665 nm).
(§2) As used herein, a way to describe potency of inhibitory activity (nM) is a value of inhibitory activity at 50% (IC50).

[2] = target: T2, Recombinant ROCK1 (amino acids 1-477) (Homo sapiens, UniProt Q13464); assay: ROCK inhibition assay, LANCE Ultra TR-FRET kinase assay (ROCK1); type: biochemical; conditions: 1 μM ATP, 50 nM ULight-CREBtide substrate
T2 construct: Recombinant ROCK1 (amino acids 1-477); by word order, ROCK1 from Carna Biosciences
Description: as §1, §2

T1 sequence (O75116 5-554): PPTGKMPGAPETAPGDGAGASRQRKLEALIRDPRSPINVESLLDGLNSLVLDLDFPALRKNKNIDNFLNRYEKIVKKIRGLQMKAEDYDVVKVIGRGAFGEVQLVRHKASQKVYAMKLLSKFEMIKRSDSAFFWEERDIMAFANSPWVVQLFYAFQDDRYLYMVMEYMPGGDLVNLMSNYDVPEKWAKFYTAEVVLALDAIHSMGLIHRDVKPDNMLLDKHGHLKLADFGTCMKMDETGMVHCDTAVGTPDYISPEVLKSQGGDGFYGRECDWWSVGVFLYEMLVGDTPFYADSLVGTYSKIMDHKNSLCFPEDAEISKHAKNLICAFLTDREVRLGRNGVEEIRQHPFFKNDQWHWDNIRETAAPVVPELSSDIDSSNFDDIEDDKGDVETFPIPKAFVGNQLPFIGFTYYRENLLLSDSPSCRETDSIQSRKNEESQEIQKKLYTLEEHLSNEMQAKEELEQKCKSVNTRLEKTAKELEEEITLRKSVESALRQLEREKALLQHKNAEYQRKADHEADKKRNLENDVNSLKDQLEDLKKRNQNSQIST
T2 sequence (Q13464 1-477): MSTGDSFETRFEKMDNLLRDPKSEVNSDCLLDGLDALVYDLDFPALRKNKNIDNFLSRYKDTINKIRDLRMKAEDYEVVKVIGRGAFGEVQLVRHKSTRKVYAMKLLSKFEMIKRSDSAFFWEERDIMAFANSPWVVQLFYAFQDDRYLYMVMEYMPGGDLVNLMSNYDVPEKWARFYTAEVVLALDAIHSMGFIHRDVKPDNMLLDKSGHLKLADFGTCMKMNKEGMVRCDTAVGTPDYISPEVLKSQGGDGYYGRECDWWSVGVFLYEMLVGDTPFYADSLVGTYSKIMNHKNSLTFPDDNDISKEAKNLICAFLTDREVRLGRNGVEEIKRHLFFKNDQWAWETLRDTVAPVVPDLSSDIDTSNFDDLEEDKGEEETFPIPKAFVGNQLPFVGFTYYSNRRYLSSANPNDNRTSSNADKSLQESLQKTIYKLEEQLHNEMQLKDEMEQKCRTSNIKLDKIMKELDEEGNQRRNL

| Structure (SMILES) | IC50 [1] [nM] | IC50 [2] [nM] |
| --- | --- | --- |
| COc1cc(F)cc(Cn2cnc3cc(-c4c[nH]nc4C(F)F)ccc3c2=O)c1 [Compound 360] | < 10 | 11 to 100 |
| Cn1nccc1-c1ccc2c(=O)n(Cc3cccc(C(=O)NCC4CCN(CC(F)F)CC4)c3)ccc2c1 [Compound 170] | < 10 | 11 to 100 |
| Cc1nocc1-c1ccc2c(=O)n(Cc3cccc(C(=O)NCc4ccc(F)nc4)c3)ccc2c1 [Compound 76] | < 10 | 11 to 100 |
| Cc1nocc1-c1ccc2c(=O)n(Cc3cccc(C(=O)Nc4ccc5c(c4)CCNC5)c3)ccc2c1 [Compound 96] | < 10 | < 10 |
| CNC(=O)c1cc(F)cc(Cn2ccc3cc(-c4cn[nH]c4C)ncc3c2=O)c1 [Compound 248] | 10 to 100 | 11 to 100 |
| O=C(NCC1CCN(C2COC2)CC1)c1cc(F)cc(Cn2ccc3cc(N4CCOCC4)ccc3c2=O)c1 [Compound 228] | 10 to 100 | 101 to 500 |
| CNC(=O)c1cc(Cl)cc(Cn2ccc3cc(-c4conc4C)ccc3c2=O)c1 [Compound 319] | 10 to 100 | 101 to 500 |
| Cc1nocc1-c1cc2ccn(Cc3cc(F)cc(C(=O)NCCN4CCOCC4)c3)c(=O)c2cn1 [Compound 267] | < 10 | 11 to 100 |
| [2H]C([2H])([2H])NC(=O)c1cccc(Cn2ccc3cc(-c4ccnn4C)ccc3c2=O)c1 [Compound 321] | 10 to 100 | 101 to 500 |
| CNC(=O)c1cccc(Cn2ccc3cc(-c4ccoc4)ccc3c2=O)c1 [Compound 302] | > 500 | > 501 |
| CN1CCC(CNC(=O)c2cc(F)cc(Cn3ccc4cc(-c5c[nH]nc5Br)ncc4c3=O)c2)CC1 [Compound 273] | < 10 | < 10 |
| CN1CCC(CNC(=O)c2cc(F)cc(Cn3ccc4cc(-c5c[nH]nc5C(F)(F)F)ccc4c3=O)c2)CC1 [Compound 134] | < 10 | 11 to 100 |
| CNC(=O)c1cc(Cn2ccc3cc(-c4cn[nH]c4C(F)(F)F)ccc3c2=O)ccc1F [Compound 284] | 10 to 100 | 101 to 500 |
| O=c1c2ccc(-c3c[nH]nc3C(F)F)cc2ccn1Cc1cccc(O)c1 [Compound 14] | < 10 | 11 to 100 |
| Cc1n[nH]cc1-c1cc2ccn(Cc3cc(F)cc(C(=O)NC4CCOCC4)c3)c(=O)c2cn1 [Compound 253] | < 10 | 11 to 100 |
| O=C(N[C@H]1CC[C@@H](O)CC1)c1cc(F)cc(Cn2ccc3cc(N4CCOCC4)ccc3c2=O)c1 [Compound 215] | 100 to 500 | > 501 |
| Cc1nocc1-c1ccc2c(=O)n(Cc3cc(F)cc(C(=O)Nc4nc5c(s4)CCN(C)C5)c3)ccc2c1 [Compound 158] | < 10 | 11 to 100 |
| CNC(=O)c1cccc(C(C)n2ccc3cc(-c4cn[nH]c4C(F)F)ccc3c2=O)c1 (stereo not drawn) [Compound 287] | < 10 | 11 to 100 |
| Cc1n[nH]cc1-c1ccc2c(=O)n(Cc3cccc(C(=O)Nc4ccc(F)nc4)c3)ccc2c1 [Compound 39] | 10 to 100 | 101 to 500 |
| Cc1nocc1-c1ccc2c(=O)n(Cc3cc(F)cc(C(=O)NCC4CCN(C)CC4)c3)ccc2c1 [Compound 149] | < 10 | 11 to 100 |
| Cc1nocc1-c1ccc2c(=O)n(Cc3cccc(C(=O)NCC4CCNCC4)c3)ccc2c1 [Compound 79] | < 10 | 11 to 100 |
| O=C(NCC1CCOCC1)c1cc(F)cc(Cn2ccc3cc(-c4c[nH]nc4C(F)F)ncc3c2=O)c1 [Compound 276] | < 10 | 11 to 100 |
| CNC(=O)c1cccc(Cn2ccc3cc(-c4cc[nH]c4C)ncc3c2=O)c1 [Compound 231, N-methyl-3-((6-(2-methyl-1H-pyrrol-3-yl)-1-oxo-2,7-naphthyridin-2(1H)-yl)methyl)benzamide] | < 10 | 11 to 100 |
| CC(=O)Nc1cccc(Cn2ccc3cc(-c4c[nH]nc4C(F)F)ccc3c2=O)c1 [Compound 341] | 10 to 100 | 101 to 500 |
| CC(=O)Nc1cccc(Cn2ccc3cc(-c4cnoc4C)ccc3c2=O)c1 [Compound 334] | 10 to 100 | 101 to 500 |
| Nc1cc(-c2ccc3c(=O)n(Cc4cccc(C(=O)Nc5ccc6c(c5)COCC6)c4)ccc3c2)ccn1 [Compound 197] | 10 to 100 | 11 to 100 |
| CC(C)N1CCC(CNC(=O)c2cccc(Cn3ccc4cc(N5CCOCC5)ccc4c3=O)c2)CC1 [Compound 223] | 10 to 100 | 101 to 500 |
| O=C(N[C@H]1C[C@H](O)C1)c1cc(F)cc(Cn2ccc3cc(N4CCOCC4)ccc3c2=O)c1 [Compound 210] | 100 to 500 | > 501 |

Results, then the compound that gave them:

| IC50 [1] [nM] | IC50 [2] [nM] | Structure (SMILES) |
| --- | --- | --- |
| < 10 | 11 to 100 | [2H]C([2H])([2H])NC(=O)c1cccc([C@@H](C)n2cnc3cc(-c4cn[nH]c4C(F)(F)F)ccc3c2=O)c1 [Compound 443] |
| < 10 | 11 to 100 | CNC(=O)c1cccc(C(C)n2cnc3cc(-c4cn[nH]c4Cl)ccc3c2=O)c1 (stereo not drawn) [Compound 406] |
| 100 to 500 | > 501 | O=C1c2ccc(-c3cn[nH]c3C(F)(F)F)cc2NCN1[C@H](CO)c1cccc(Cl)c1 [Compound 524] |
| 10 to 100 | 101 to 500 | CNC(=O)c1cccc([C@@H](C)n2cnc3cc(-c4ccnc(N)c4)ccc3c2=O)c1 [Compound 481] |
| < 10 | < 10 | CNC(=O)c1cccc([C@@H](C)n2cnc3cc(-c4cn[nH]c4F)ncc3c2=O)c1 [Compound 570] |
| < 10 | 11 to 100 | [2H]C([2H])([2H])NC(=O)c1cccc([C@@H](C)n2cnc3cc(-c4conc4C)ccc3c2=O)c1 [Compound 471] |
| < 10 | 11 to 100 | Cn1ccc(NC(=O)c2cccc(Cn3cnc4cc(-c5cn[nH]c5C(F)(F)F)ccc4c3=O)c2)n1 [Compound 374] |
| < 10 | 11 to 100 | [2H]C([2H])([2H])NC(=O)c1cccc([C@@H](C)n2cnc3cc(-c4cn[nH]c4C(F)F)ccc3c2=O)c1 [Compound 458] |
| < 10 | 11 to 100 | O=C(NCC1COC1)c1cccc(Cn2cnc3cc(-c4cn[nH]c4C(F)(F)F)ccc3c2=O)c1 [Compound 380] |
| < 10 | 11 to 100 | CNC(=O)c1cccc(C(C)n2cc(CCO)c3cc(-c4cn[nH]c4F)ccc3c2=O)c1 (stereo not drawn) [Compound 554] |
| < 10 | 11 to 100 | C[C@H](c1cccc(C(=O)NCC2CCOCC2)c1)n1cnc2cc(-c3cn[nH]c3C(F)F)ccc2c1=O [Compound 462] |
| < 10 | 11 to 100 | CNC(=O)c1cccc(Cn2cc(C(C)O)c3cc(-c4conc4C)ccc3c2=O)c1 (stereo not drawn) [Compound 537] |
| < 10 | 11 to 100 | CNC(=O)c1cccc(Cn2cc(CCO)c3cc(-c4cn[nH]c4F)ccc3c2=O)c1 [Compound 555] |
| 10 to 100 | 101 to 500 | Cc1nocc1-c1ccc2c(=O)n(C(CO)c3cccc(Cl)c3)cnc2c1 (stereo not drawn) [Compound 488] |
| 10 to 100 | 101 to 500 | CS(=O)(=O)c1cccc(CNC(=O)c2cccc(Cn3cnc4cc(-c5cn[nH]c5C(F)F)ccc4c3=O)c2)c1 [Compound 398] |
| < 10 | 11 to 100 | C[C@H](c1cccc(C(=O)NC2COC2)c1)n1cnc2cc(-c3cn[nH]c3Br)ccc2c1=O [Compound 514] |
| < 10 | 11 to 100 | Cn1nccc1-c1ccc2c(=O)n(Cc3cccc(C(=O)N[C@H]4C[C@H](O)C4)c3)cnc2c1 [Compound 428] |
